Source: ChEMBL document CHEMBL2074231, “Influence of molecular structure on substrate binding to the human organic cation transporter, hOCT1” (Mol Pharmacol, 2003)

Molecular target: T1, Solute carrier family 22 member 1 (Homo sapiens, UniProt O15245)
T1 sequence (O15245 whole entry): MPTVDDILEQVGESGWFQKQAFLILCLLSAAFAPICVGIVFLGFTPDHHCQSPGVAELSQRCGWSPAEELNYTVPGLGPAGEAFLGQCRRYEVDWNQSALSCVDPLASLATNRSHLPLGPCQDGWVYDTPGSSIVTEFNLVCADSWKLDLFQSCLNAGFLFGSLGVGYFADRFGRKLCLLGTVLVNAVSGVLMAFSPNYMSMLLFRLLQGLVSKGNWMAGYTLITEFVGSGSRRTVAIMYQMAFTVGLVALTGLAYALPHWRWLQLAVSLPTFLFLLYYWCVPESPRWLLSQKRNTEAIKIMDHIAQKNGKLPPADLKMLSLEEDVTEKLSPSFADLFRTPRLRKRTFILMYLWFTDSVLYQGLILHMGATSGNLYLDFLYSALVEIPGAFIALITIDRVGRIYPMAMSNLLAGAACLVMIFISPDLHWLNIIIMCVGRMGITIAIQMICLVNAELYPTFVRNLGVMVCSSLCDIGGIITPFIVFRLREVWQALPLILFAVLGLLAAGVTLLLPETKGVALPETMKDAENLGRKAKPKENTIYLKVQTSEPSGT
Test: TP_TRANSPORTER: inhibition of TEA uptake in OCT1-expressing HeLa cells

`CN(C)CCCN1c2ccccc2Sc2ccc(Cl)cc21` [CHLORPROMAZINE] showed an IC50 of 4.3 µM.
